The values below come from USRE47493E1, “Substituted bicyclic dihydropyrimidinones and their use as inhibitors of neutrophil elastase activity” (Boehringer Ingelheim International GmbH, priority 2014, dated 2019).

Series [1] deals with neutrophil elastase in human plasma (Homo sapiens (Human), UniProt P08246). As to the kind of experiment: Assay for the Determination of Neutrophil Elastase Inhibitory Activity in Human Plasma. It is filed as biochemical. The conditions noted are these: neutrophil elastase enriched human plasma (zymosan-stimulated blood). On the procedure: Assay for the Determination of Neutrophil Elastase Inhibitory Activity in Human Plasma
Citrated blood from human healthy donors is mixed with zymosan suspension and incubated at room temperature. This leads to the stimulation of neutrophils and the release of neutrophil elastase into the plasma. The stimulated blood is centrifuged to generate the neutrophil elastase enriched plasma.
Preparation of Zymosan Working Solution:
• single 45 ml blood sample is taken into a 50 ml tube containing citrate (3.13%, 5 mL) and the tube is gently inverted 4 times. • Immediately after blood sampling, zymosan working solution (5 mL) is added. • After the addition of zymosan working solution, the tubes are capped, mixed gently and incubated at 22° C. for 15 min on a shaker at 20 rpm. • Make 10 ml aliquots after the incubation time. • Centrifuge the 15 ml tubes at 800 g for […] at 4° C. in a Jouan centrifuge. • Harvest the plasma and make 1-5 ml aliquots. • Store the plasma at −80° C.
Various concentrations of the neutrophil elastase inhibitor are incubated with plasma. Subsequently, the enzyme activity is measured using the fluorogenic substrate MeOSuc-Ala-Ala-Pro-Val-AMC (Bachem Cat. No. 1-1270, substrate concentration: 250 μM, pH 7.5, 25 mM TRIS buffer, 250 mM NaCl) in analogous fashion as described for the human neutrophil assay. A dose response curve is generated to calculate the EC50 of the inhibitor. The analysis of the data is performed by the calculation of the percentage of fluorescence in the presence of the test compound compared to the fluorescence of the vehicle control after subtracting the background fluorescence: An inhibitor of the neutrophil elastase enzyme will give values between 100% control (no inhibition) and 0% control (complete inhibition). The human plasma shift of selected compounds can be calculated using the following equation: Human plasma shift=(EC50 in human plasma assay)/(IC50 in human neutrophil elastase assay) The EC50 values of selected compounds in the human plasma assay described above are listed in Table 14.

Series [2] is described as follows: Assay for Determination of Drug Transport Across Human CACO-2 Cells. In kind it is in vitro ADME. The settings on record: human; for efflux ratio at 2 h, 10 nM: pH 7.2, Caco-2, PEBA/PEAB; for Papp A→B at 10 nM: Caco-2, apical-to-basal, read-out: PEAB; for Papp A→B at 10 nM / Papp B→A at 10 nM: pH 7.2, 37° C.; for Papp B→A at 10 nM: Caco-2, basal-to-apical, read-out: PEBA. The source says:
Assay for Determination of Drug Transport Across Human CACO-2 Cells
The assay provides information on the potential of a compound to pass the cell membrane, on the extent of oral absorption as well as on whether the compound is actively transported by uptake and/or efflux transporters. For the measurement of permeability across polarized, confluent human cancer colon carcinoma cells 2 (Caco-2) cell monolayers grown on permeable filter supports are used as the in vitro absorption model. Apparent permeability coefficients (PE) of the compounds across the Caco-2 monolayers are measured (pH 7.2, 37° C.) in apical-to-basal (AB) (absorptive) and basal-to-apical (BA) (secretory) transport direction. AB permeability (PEAB) represents drug absorption from the intestine into the blood and BA permeability (PEBA) drug secretion from the blood back into the intestine via both passive permeability as well as active transport mechanisms mediated by efflux and uptake transporters that are expressed on the Caco-2 cells. The compounds are assigned to permeability/absorption classes by comparison of the AB permeabilities with the AB permeabilities of reference compounds with known in vitro permeability and oral absorption in the human. Identical or similar permeabilities in both transport directions indicate passive permeation, vectorial permeability points to additional active transport mechanisms. […] Active transport is concentration-dependently saturable.
Caco-2 cells (1−2*10^5 cells/cm^2 area) are seeded on filter inserts (Costar transwell polycarbonate or PET filters, […] pore size) and cultured (DMEM) for 10 to 25 days. Compounds are dissolved in appropriate solvent (like DMSO, 1-20 mM stock solutions). Stock solutions are diluted with HTP-4 buffer (128.13 mM NaCl, 5.36 mM KCl, 1 mM MgSO4, 1.8 mM CaCl2, 4.17 mM NaHCO3, 1.19 mM Na2HPO4×7H2O, 0.41 mM NaH2PO4×H2O, 15 mM HEPES, 20 mM glucose, pH 7.2) to prepare the transport solutions (typically […] compound, final DMSO <=0.5%). The transport solution (TL) is applied to the apical or basolateral donor side for measuring A-B or B-A permeability (3 filter replicates), respectively. The receiver side contains HTP-4 buffer supplemented with 2% BSA. Samples are collected at the start and end of experiment from the donor and at various time intervals for up to 2 hours also from the receiver side for concentration measurement by LC-MS/MS or scintillation counting. Sampled receiver volumes are is replaced with fresh receiver solution.
The apparent permeability coefficients (PEAB and PEBA) and efflux ratios (PEBA/PEAB) of selected compounds in the Caco-2 drug transport assay described above are listed in Table 17.
For orientation: Caco-2 cells form a polarised layer with tight junctions and transporters.

The structures appear in SMILES notation.

Sequence of neutrophil elastase in human plasma (P08246 30-267): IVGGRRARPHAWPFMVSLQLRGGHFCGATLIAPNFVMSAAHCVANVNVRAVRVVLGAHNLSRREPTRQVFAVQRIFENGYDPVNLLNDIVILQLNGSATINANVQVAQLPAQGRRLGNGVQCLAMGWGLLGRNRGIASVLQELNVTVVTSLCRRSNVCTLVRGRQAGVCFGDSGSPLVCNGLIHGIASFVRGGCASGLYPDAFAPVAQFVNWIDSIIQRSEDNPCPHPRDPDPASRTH

On to `CS(=O)(=O)c1cc(C#N)ccc1[C@H]1NC(=O)N(c2cccc(C(F)(F)F)c2)C2=C1C(=O)CCC2` (single isomer, unassigned) [Example 18A], for which, in series [1], the concentration giving a half-maximal response (EC50) (usually the concentration needed to bring the measured effect to its halfway point) came out at 3 nM. Moreover, in series [2], the efflux ratio (usually the permeability from basolateral to apical divided by that in the opposite direction, in the common usage) at 2 h, 10 nM was found to be 4.2; the Papp A→B at 10 nM came out at 20.9 ×10⁻⁶ cm/s; the Papp B→A at 10 nM is 88.2 ×10⁻⁶ cm/s.

In turn, `CS(=O)(=O)c1cc(C#N)ccc1[C@H]1NC(=O)N(c2cccc(C(F)F)c2)C2=C1C(=O)CCC2` (single isomer, unassigned) [Example 19A] showed an EC50 in series [1] of 2 nM. Further, in series [2], the efflux ratio at 2 h, 10 nM was found to be 6.7; the Papp A→B at 10 nM came out at 11.4 ×10⁻⁶ cm/s; the Papp B→A at 10 nM stood at 76.7 ×10⁻⁶ cm/s.

Take `CC(C)(O)CNC(=O)N1C(=O)N(c2cccc(C(F)(F)F)c2)C2=C(C(=O)CCC2)C1c1ccc(C#N)cc1` (centres unmarked) [Example 70.9]: the EC50 in series [1] was 15 nM. Also, in series [2], the efflux ratio at 2 h, 10 nM came out at 3.2; the Papp A→B at 10 nM turned out to be 30.3 ×10⁻⁶ cm/s; the Papp B→A at 10 nM stood at 96.1 ×10⁻⁶ cm/s.

In turn, `CNC(=O)N1C(=O)N(c2cccc(C(F)(F)F)c2)C2=C(C(=O)CCC2)[C@H]1c1ccc(C#N)cc1S(C)(=O)=O` (single isomer, unassigned) [Example 47A] returned an EC50 in series [1] of 1 nM. Besides, in series [2], the efflux ratio at 2 h, 10 nM is 5.4; the Papp A→B at 10 nM was determined as 9.86 ×10⁻⁶ cm/s; the Papp B→A at 10 nM came to 53.5 ×10⁻⁶ cm/s.

`CCS(=O)(=O)c1cc(C#N)ccc1[C@H]1NC(=O)N(c2cccc(C(F)(F)F)c2)C2=C1C(=O)CCC2` (single isomer, unassigned) [Example 54A] came in with an EC50 in series [1] of 1 nM. Besides, in series [2], the efflux ratio at 2 h, 10 nM was found to be 2.4; the Papp A→B at 10 nM turned out to be 26 ×10⁻⁶ cm/s; the Papp B→A at 10 nM amounted to 61.7 ×10⁻⁶ cm/s.
